Tests used:
ERα_LBD(GST) = ERα_LBD(GST) (Homo sapiens (Human), UniProt P03372); experiment: LanthaScreen TR-FRET ERα competitive binding assay; conditions: read-out: ERα HTRF IC50
Procedure: • 1. ERα_LBD(GST) protein: 4 nM • 2. Tb Anti-GST: 2 nM • 3. Fluormone ES2 Green tracer: 3 nM • 4. Incubation time: 60 min • 5. DMSO: 1% • 6. Assay buffer: Adding 1M DTT to Nuclear receptor Buffer K for final 5 mM DTT. • 7. ZPE: 1% DMSO • 8. HPE: 1 μM ARV_471 • 9. LanthaScreen® TR-FRET ERα Competitive Binding Assay (ThermoFisher, #A15887)
• 1) Cherry pick 2 μL 10 mM compound stock to column 1 of a 384 intermediate plate • 2) Add 18 μL DMSO to column 1 to dilute compound to 1 mM. • 3) Transfer 10 μL 1 mM compound to column 1 of a LDV plate. • 2) Add 6 μl DMSO to column 2-10 of the LDV plate. • 3) Compounds undergo 3-fold serial dilution (3 μL+6 μL) in DMSO. • 4) Transfer 120 nL compound solution to assay plate. • ZPE: 120 nL 100% DMSO
Prepare complete nuclear receptor buffer K by adding 1 M DTT to nuclear receptor buffer K for a final concentration of 5 mM DTT. Complete nuclear receptor buffer K must be prepared fresh daily. Prepare 2× protein solution using complete nuclear receptor buffer K containing 8 nM ERα_LBD(GST) and 4 nM Tb Anti-GST. Then, prepare 2× Fluormone ES2 Green tracer (6 nM) using complete nuclear receptor buffer K. Add 6 μL 2× Fluormone ES2 green tracer into a compound plate (PerkinElmer 6008289) by dragonfly with one-tips-addition. Subsequently, add 6 μL 2× protein solution into the plate. Briefly and gently mix the 384-well plate on a plate shaker and incubate at room temperature protected from light for 60 min. The plate is sealed with a cover to minimize evaporation. Read the plate at wavelengths of 520 nm and 495 nm. Calculate the TR-FRET ratio by dividing the emission signal at 520 nm by the emission signal at 495 nm. Generate a binding curve by plotting the emission ratio vs. the log [ligand]. To determine the IC50 value, fit the data using XL-fit for a sigmoidal dose-response.

ER [1] = target: T1, ER (Homo sapiens (Human), UniProt P03372); experiment: In-cell western (ICW) ER degradation assay in MCF-7 cells; assay type: cell-based; conditions: MCF7, 16 hrs; for DC50: ER degradation; for Dmax: MCF7, maximal ER degradation; for MCF7 Dmax %: maximal ER degradation
ER [2] = target: T1, ER; experiment: In-cell western (ICW) ER degradation assay in T47D cells; assay type: cell-based; conditions: 16 hrs; for DC50: ER degradation; for Dmax / T47D Dmax %: maximal ER degradation
CRBN/DDB1 = CRBN/DDB1 (Homo sapiens (Human), UniProt Q96SW2); experiment: HTRF binding assay to CRBN/DDB1; conditions: read-out: CRBN HTRF IC50
Procedure: The binding potency was determined using HTRF assay technology (Perkin Elmer). Compounds were serially diluted in DMSO and 0.2 μL volume was transferred to white 384-well plate.

Sequence of ERα_LBD(GST) (P03372 311-547): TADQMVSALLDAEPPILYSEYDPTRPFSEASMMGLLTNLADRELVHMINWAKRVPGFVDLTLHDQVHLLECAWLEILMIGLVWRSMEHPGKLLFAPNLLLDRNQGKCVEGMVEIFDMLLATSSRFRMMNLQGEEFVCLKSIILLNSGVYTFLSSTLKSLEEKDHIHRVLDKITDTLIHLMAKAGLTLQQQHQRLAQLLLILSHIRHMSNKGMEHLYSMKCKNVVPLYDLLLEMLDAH
T1 sequence (P03372 whole entry): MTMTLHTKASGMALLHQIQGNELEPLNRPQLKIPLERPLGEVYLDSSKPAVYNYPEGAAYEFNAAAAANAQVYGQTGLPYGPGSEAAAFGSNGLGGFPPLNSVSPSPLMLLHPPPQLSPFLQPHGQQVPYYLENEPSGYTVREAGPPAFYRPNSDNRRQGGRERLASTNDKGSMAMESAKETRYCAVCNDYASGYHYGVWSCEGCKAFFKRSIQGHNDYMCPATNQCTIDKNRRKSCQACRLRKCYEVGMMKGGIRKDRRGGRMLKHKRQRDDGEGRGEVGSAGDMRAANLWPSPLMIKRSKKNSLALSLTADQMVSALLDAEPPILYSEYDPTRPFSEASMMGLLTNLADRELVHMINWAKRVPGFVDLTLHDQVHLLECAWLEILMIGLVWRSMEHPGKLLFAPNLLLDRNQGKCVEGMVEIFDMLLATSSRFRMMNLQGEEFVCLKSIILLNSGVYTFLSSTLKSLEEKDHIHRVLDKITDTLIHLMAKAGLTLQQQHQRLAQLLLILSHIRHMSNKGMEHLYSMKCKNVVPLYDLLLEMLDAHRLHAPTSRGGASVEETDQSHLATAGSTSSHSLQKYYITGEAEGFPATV
Sequence of CRBN/DDB1 (Q96SW2 whole entry): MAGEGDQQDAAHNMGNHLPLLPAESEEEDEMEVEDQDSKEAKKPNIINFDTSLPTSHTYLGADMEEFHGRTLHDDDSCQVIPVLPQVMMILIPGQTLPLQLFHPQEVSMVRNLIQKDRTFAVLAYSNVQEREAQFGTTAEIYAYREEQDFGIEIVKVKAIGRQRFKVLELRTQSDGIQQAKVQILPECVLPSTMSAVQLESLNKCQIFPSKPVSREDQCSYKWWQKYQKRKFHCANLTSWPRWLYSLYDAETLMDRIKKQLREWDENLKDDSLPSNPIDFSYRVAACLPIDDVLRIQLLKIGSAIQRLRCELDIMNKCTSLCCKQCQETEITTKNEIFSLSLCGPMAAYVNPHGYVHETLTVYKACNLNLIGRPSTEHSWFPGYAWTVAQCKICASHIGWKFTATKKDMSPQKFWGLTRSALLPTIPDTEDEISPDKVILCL
Sequence of CRBN/DDB1 (Q16531 whole entry partner): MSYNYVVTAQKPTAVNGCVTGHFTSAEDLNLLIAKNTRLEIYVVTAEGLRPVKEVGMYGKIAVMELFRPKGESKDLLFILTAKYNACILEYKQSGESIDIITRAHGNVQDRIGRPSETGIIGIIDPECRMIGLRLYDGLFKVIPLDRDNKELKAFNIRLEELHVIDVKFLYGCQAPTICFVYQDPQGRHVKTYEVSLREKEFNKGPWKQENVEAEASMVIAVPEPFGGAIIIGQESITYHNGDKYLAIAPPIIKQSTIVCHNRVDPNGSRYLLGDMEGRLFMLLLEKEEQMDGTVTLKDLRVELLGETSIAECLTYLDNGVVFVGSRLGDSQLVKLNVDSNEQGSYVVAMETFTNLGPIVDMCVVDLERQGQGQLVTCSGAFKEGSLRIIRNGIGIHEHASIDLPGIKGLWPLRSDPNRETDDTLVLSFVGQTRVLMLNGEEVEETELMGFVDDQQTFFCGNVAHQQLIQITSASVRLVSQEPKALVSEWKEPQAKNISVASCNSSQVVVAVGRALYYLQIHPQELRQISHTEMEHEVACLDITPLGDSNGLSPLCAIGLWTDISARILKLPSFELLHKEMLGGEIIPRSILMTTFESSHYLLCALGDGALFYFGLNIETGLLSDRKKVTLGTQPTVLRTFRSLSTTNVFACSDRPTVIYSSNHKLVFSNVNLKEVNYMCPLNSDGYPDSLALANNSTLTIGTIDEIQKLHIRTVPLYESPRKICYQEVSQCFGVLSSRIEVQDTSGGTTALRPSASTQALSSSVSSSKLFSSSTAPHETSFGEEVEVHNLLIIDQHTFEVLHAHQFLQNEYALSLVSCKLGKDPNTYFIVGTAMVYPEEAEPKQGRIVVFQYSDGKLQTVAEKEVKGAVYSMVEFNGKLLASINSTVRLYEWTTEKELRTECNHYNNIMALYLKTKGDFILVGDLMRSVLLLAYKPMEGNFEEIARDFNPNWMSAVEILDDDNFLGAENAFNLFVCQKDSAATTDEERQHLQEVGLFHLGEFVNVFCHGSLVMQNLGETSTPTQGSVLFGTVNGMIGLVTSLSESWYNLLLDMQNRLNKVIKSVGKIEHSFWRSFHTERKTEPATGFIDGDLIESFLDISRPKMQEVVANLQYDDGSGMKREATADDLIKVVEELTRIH

SMILES | IC50 (ERα_LBD(GST)) | DC50 (ER [1]) | Dmax (ER [1]) | DC50 (ER [2]) | Dmax (ER [2]) | MCF7 Dmax % (ER [1]) | T47D Dmax % (ER [2]) | IC50 (CRBN/DDB1)
COc1cc(N2CCC3(CC2)CC(CN2CCN4c5ccc6c(c5OC[C@@H]4C2)CN([C@@H]2CCC(=O)NC2=O)C6=O)C3)c(F)cc1[C@@H]1c2ccc(O)cc2OC[C@@H]1c1ccccc1 (single isomer, unassigned) [Compound A125] | < 5 nM | < 1 nM | ≥ 75% | < 1 nM | ≥ 75% |  |  | 
O=C1CCC(N2Cc3c(ccc4c3OC[C@H]3CN(CC5CC6(CCN(c7ccc([C@@H]8c9ccc(O)cc9OC[C@@H]8c8ccccc8)cn7)CC6)C5)CCN43)C2=O)C(=O)N1 (single isomer, unassigned) [Compound A66] | ≥ 5 nM | 1 to 10 nM |  | 1 to 10 nM |  | B (“B”: >50% and <75%) | B (“B”: >50% and <75%) | 
O=C1CCC(N2Cc3cc(N4CCN(CC5CC6(CCN(c7ccc([C@@H]8c9ccc(O)cc9OC[C@@H]8c8ccccc8)cn7)CC6)C5)CC4)ccc3C2=O)C(=O)N1 (single isomer, unassigned) [Compound A68] | < 5 nM | 1 to 10 nM |  | 1 to 10 nM |  | B (“B”: >50% and <75%) | A (“A”; >=75%) | 
O=C1CC[C@@H](N2Cc3cc4c(cc3C2=O)OCC42CCN(CC3CCC4(CC3)CN(c3ccc([C@H]5c6ccc(O)cc6OC[C@H]5c5ccccc5)cc3)C4)CC2)C(=O)N1 [Compound A153, (R)-3-(1′-((2-(4-((3R,4S)-7-hydroxy-3-phenylchroman-4-yl)phenyl)-2-azaspiro[3.5]nonan-7-yl)methyl)-7-oxo-5,7-dihydro-2H,6H-spiro[furo[2,3-f]isoindole-3,4′-piperidin]-6-yl)piperidine-2,6-dione] | < 5 nM | < 1 nM | 50 to 75% | < 1 nM | ≥ 75% |  |  | 
O=C1CC[C@@H](NC(=O)c2ccc(N3CCN(CC4COC5(CCN(c6ccc([C@H]7c8ccc(O)cc8OC[C@H]7c7ccccc7)cc6)CC5)C4)CC3)cn2)C(=O)N1 (single isomer, unassigned) [Compound A145] | < 5 nM | 1 to 10 nM | 50 to 75% | < 1 nM | 50 to 75% |  |  | > 5000 nM
COc1cc(N2CCC(CN3CCN4c5ccc6c(c5OC[C@@H]4C3)CN([C@@H]3CCC(=O)NC3=O)C6=O)CC2)c(F)cc1[C@@H]1c2ccc(O)cc2OC[C@@H]1c1ccccc1 (single isomer, unassigned) [Compound A106] | < 5 nM | < 1 nM | ≥ 75% | < 1 nM | ≥ 75% |  |  | 
O=C1CCC(N2Cc3c(ccc4c3OC[C@H]3CN(CC5CCN(c6ncc([C@H]7c8ccc(O)cc8OC[C@H]7c7ccccc7)cn6)CC5)CCN43)C2=O)C(=O)N1 (single isomer, unassigned) [Compound A35] | < 5 nM | 1 to 10 nM | 25 to 50% | 1 to 10 nM | 50 to 75% |  |  | 50 to 500 nM
O=C1CC[C@@H](N2Cc3cc4c(cc3C2=O)CN(C(=O)CN2CCC3(CC2)CCN(c2ccc([C@H]5c6ccc(O)cc6OC[C@H]5c5ccccc5)cc2)CC3)C4)C(=O)N1 (single isomer, unassigned) [Compound A41] | ≥ 5 nM | 1 to 10 nM | 50 to 75% | < 1 nM | ≥ 75% |  |  | 50 to 500 nM
O=C1CC[C@H](NC(=O)c2ccc3c(n2)OC[C@H]2CN(CC4CCC5(CC4)CN(c4ccc([C@@H]6c7ccc(O)cc7OC[C@@H]6c6ccccc6)cc4)C5)CCN32)C(=O)N1 [Compound A142, (R)-N-((S)-2,6-dioxopiperidin-3-yl)-3-((2-(4-((3S,4R)-7-hydroxy-3-phenylchroman-4-yl)phenyl)-2-azaspiro[3.5]nonan-7-yl)methyl)-1,2,3,4,4a,5-hexahydropyrazino[1,2-d]pyrido[2,3-b][1,4]oxazine-8-carboxamide] | < 5 nM | 1 to 10 nM | 50 to 75% | < 1 nM | 50 to 75% |  |  | 500 to 5000 nM
O=C1CCC(N2C(=O)c3cc4c(cc3C2=O)CN(CC(=O)N2CCC3(CC2)CN(c2ccc([C@@H]5c6ccc(O)cc6OC[C@@H]5c5ccccc5)cc2)C3)C4)C(=O)N1 (single isomer, unassigned) [Compound A44] | < 5 nM | 1 to 10 nM | 50 to 75% | < 1 nM | 50 to 75% |  |  | 50 to 500 nM
O=C1CC[C@H](N2Cc3cc4c(cc3C2=O)OC[C@@H]2CN(CC3CC5(CCN(c6ccc([C@@H]7c8ccc(O)cc8OC[C@@H]7c7ccccc7)cc6)CC5)C3)CCN42)C(=O)N1 (single isomer, unassigned) [Compound A59] | < 5 nM | 1 to 10 nM | 50 to 75% | < 1 nM | ≥ 75% |  |  | 
COc1cc(N2CCC(CN3CCN4c5cc6c(cc5OC[C@H]4C3)C(=O)N([C@@H]3CCC(=O)NC3=O)C6)CC2)ccc1[C@H]1c2ccc(O)cc2OC[C@H]1c1ccccc1 (single isomer, unassigned) [Compound A122] | < 5 nM | < 1 nM | ≥ 75% | < 1 nM | ≥ 75% |  |  | 
O=C1CCC(N2C(=O)c3cc4c(cc3C2=O)CN(CC(=O)N2CC3(CCN(c5ccc([C@@H]6c7ccc(O)cc7OC[C@@H]6c6ccccc6)cc5)CC3)C2)C4)C(=O)N1 (single isomer, unassigned) [Compound A26] | < 5 nM |  |  |  |  |  |  | 50 to 500 nM
COc1cc(N2CCC(CN3CCN4c5cc6c(cc5OC[C@H]4C3)C(=O)N(C3CCC(=O)NC3=O)C6)CC2)ccc1[C@@H]1c2ccc(O)cc2OC[C@@H]1c1ccccc1 (single isomer, unassigned) [Compound A84] | < 5 nM |  | 50 to 75% |  | 50 to 75% |  |  | 
O=C1CCC(N2C(=O)c3cc4c(cc3C2=O)CN(CC(=O)N2CCC3(CC2)CCN(c2ccc([C@H]5c6ccc(O)cc6OC[C@H]5c5ccccc5)cc2)CC3)C4)C(=O)N1 (stereo partly drawn) [Compound A40, 2-(2,6-dioxopiperidin-3-yl)-6-(2-(9-(4-((3R,4S)-7-hydroxy-3-phenylchroman-4-yl)phenyl)-3,9-diazaspiro[5.5]undecan-3-yl)-2-oxoethyl)-6,7-dihydropyrrolo[3,4-f]isoindole-1,3(2H,5H)-dione] | ≥ 5 nM | 1 to 10 nM | 50 to 75% | < 1 nM | 50 to 75% |  |  | 
O=C1CCC(N2Cc3c(ccc4c3OC[C@H]3CN(CC5CCN(c6ccc([C@@H]7c8ccc(O)cc8OC[C@@H]7c7ccccc7)cc6F)CC5)CCN43)C2=O)C(=O)N1 (single isomer, unassigned) [Compound A9, 3-((R)-7-((1-(2-fluoro-4-((3S,4R)-7-hydroxy-3-phenylchroman-4-yl)phenyl)piperidin-4-yl)methyl)-1-oxo-1,3,5,5a,6,7,8,9-octahydro-2H-pyrazino[1′,2′:4,5][1,4]oxazino[2,3-e]isoindol-2-yl)piperidine-2,6-dione] | < 5 nM |  | 50 to 75% |  |  |  |  | 
COc1cc(N2CCC(CN3CCN4c5ccc6c(c5OC[C@@H]4C3)CN([C@@H]3CCC(=O)NC3=O)C6=O)CC2)ccc1[C@H]1c2ccc(O)cc2OC[C@H]1c1ccccc1 (single isomer, unassigned) [Compound A121] | < 5 nM |  | ≥ 75% |  | ≥ 75% |  |  | 
O=C1CC[C@@H](N2Cc3c(ccc4c3OC[C@@H]3CN(C[C@@H]5COC6(CCN(c7ccc([C@H]8c9ccc(O)cc9OC[C@H]8c8ccccc8)cc7)CC6)C5)CCN43)C2=O)C(=O)N1 (single isomer, unassigned) [Compound A132] | < 5 nM | 1 to 10 nM | 50 to 75% | 1 to 10 nM | 50 to 75% |  |  | 
O=C1CCC(N2Cc3cc4c(cc3C2=O)OCC42CCN(CC3CCC4(CC3)CN(c3ccc([C@H]5c6ccc(O)cc6OC[C@H]5c5ccccc5)cc3)C4)CC2)C(=O)N1 (stereo partly drawn) [Compound A99, 3-(1′-((2-(4-((3R,4S)-7-hydroxy-3-phenylchroman-4-yl)phenyl)-2-azaspiro[3.5]nonan-7-yl)methyl)-7-oxo-5,7-dihydro-2H,6H-spiro[furo[2,3-f]isoindole-3,4′-piperidin]-6-yl)piperidine-2,6-dione] | < 5 nM | < 1 nM | 50 to 75% | < 1 nM | 50 to 75% |  |  | 
